Experimental data reported in patent publication US4568690A, “1-Methyl-5-p-methylbenzoylpyrrole-2-acetamidoacetanilides with antiinflammatory, analgesic, antipyretic and anti-platelet aggregant activity” (priority 1983, dated 1986).

What was measured:
[1] = system: carragenin-induced edema; test: carragenin-induced edema test (antinflammatory activity); format: in vivo, rats
Protocol: (§1) Preparations of the compound were administered orally and/or parenterally in a suspension in 0.59% carboxymethylcellulose in pH neutral physiological saline.
This effect was evaluated with an experimental model reproducing actue inflammation in rats: the carragenin-induced edema test was used, according to the method of C. A. Winter (G. Pharmac. Exp. Ther., 141, 369 (1963)). Table III reports the compounds tested, their concentrations, administration routes and relative percent edema inhibition.

[2] = system: p-phenylquinone-induced writhing; test: p-phenylquinone-induced writhing test (analgesic activity); format: in vivo; conditions: an hour after administration
Protocol: as §1
The determination was made an hour after administration of the product. The inhibitory effect on abdominal contractions induced by phenyl-p-quinone was calculated as follows: [formula]
Table IV reports the doses, the administration routes and their effectiveness expressed as % protection.

[3] = system: hyperthermia induced by dry purified beer yeast; test: antipyretic activity, beer yeast-induced hyperthermia; format: in vivo, Wistar strain male albino rats
Protocol: as §1
This effect was evaluated by inducing hyperthermia in Wistar strain male albino rats with an average weight of 250±10 g, injecting them intraperitoneally with a 10% suspension of dry purified beer yeast (Carlo Erba) in a volume of 10 ml/Kg of body weight, according to the method of S. Wong et al. (J. Pharmac. Exp. Ther., 185 (1), 127 (1973)).

[4] = system: platelet aggregation (ADP-induced); test: in vitro anti-platelet aggregant activity (Born's method, ADP); format: cell-based, rat; conditions: for inhibition at 1 µg/mL / inhibition at 5 µg/mL / inhibition at 10 µg/mL: Rattus norvegicus, Platelet, ADP 7.08 μmol/l, read-out: Inhibition % (platelet aggregation); for inhibition at 1 µg/mL: 1 γ/ml; for inhibition at 5 µg/mL: 5 γ/ml; for inhibition at 10 µg/mL: 10 γ/ml
Protocol: This activity was studied in vitro following Born's method (G. W. R. Born, Nature, 194, 937 (1962)) and inducing platelet aggregation with ADP. […] For the aggregation test, 0.2 ml of platelet rich plasma was mixed with a NaCl solution (0.9%) to which the test substance was added up to a final volume of 0.6 ml. Incubation was fixed at 3 minutes at 27° C. After aggregation was induced with ADP, the course of the aggregation was monitored continuously with an Elvi 840 Aggregometer (Elvi Logos--Milan). The antiaggregant effects were determined by the difference in the light transmission of the sample with respect to that of the ADP control. The test compound was compared with aspirin, which has known antiplatelet aggregant activity (H. J. Weiss et al., J. Clin. Inv., 47, 2169 (1968); Platelet Aggregation and Drugs, edited by L. Caprino and E. C. Rossi, page 235, Academic Press (London), 1974).
Table VI reports the inhibition of platelet aggregation with various doses of the compounds tested at a constant ADP concentration.

[5] = in vivo; conditions: rat, ip
[6] = system: gastric mucosa; test: gastric tolerance (ulcerogenic activity); conditions: orally, four consecutive days; for Mean number severity: severity scale 0-5
Protocol: This was studied by testing ulcerogenic activity in male Wistar rats weighing an average of 180 g, using groups of 10 animals each. Three doses of each substance were used, and one group of animals was treated with vehicle only, in a volume of 10 ml/g body weight. Each dose was administered orally for four consecutive days, and the rats were killed on the fifth day and autopsied. The ulcerogenic effect was evaluated on the following scale:
(1) each hemorrhage point >1 mm was evaluated as 1 lesion
(2) the hemorrhage points <1 were counted as follows:
(b) from 1 to 19 2 lesions
(c) from 1 to 29 3 lesions
(2) gastric mucosa irritation
(3) hemorrhage points <1 mm
(4) hemorrhage points from 1 to 3 mm
(5) hemorrhage points >3 mm
This scale was used to calculate the following index of gastric damage: [formula]

`Cc1ccc(C(=O)c2ccc(CC(=O)NCC(=O)Nc3cccc(C)c3C)n2C)cc1` [Compound 1f] showed an Oedema inhibition % ([1]; i.p., 10 mg/kg, 3 h) of 37.1%, an Oedema inhibition % ([1]; i.p., 10 mg/kg, 6 h) of 33.4% and an Oedema inhibition % ([1]; i.p., 10 mg/kg, 24 h) of 0.0%. It also gave an Oedema inhibition % ([1]; i.p., 50 mg/kg, 3 h) of 51.6%, an Oedema inhibition % ([1]; i.p., 50 mg/kg, 6 h) of 53.9% and an Oedema inhibition % ([1]; i.p., 50 mg/kg, 24 h) of 4.2%. The Oedema inhibition % ([1]; i.p., 100 mg/kg, 3 h) was 72.5%, the Oedema inhibition % ([1]; i.p., 100 mg/kg, 6 h) was 70.0% and the Oedema inhibition % ([1]; i.p., 100 mg/kg, 24 h) was 19.1%. For the same compound, the Oedema inhibition % ([1]; os, 10 mg/kg, 3 h) was 32.6%, the Oedema inhibition % ([1]; os, 10 mg/kg, 6 h) was 34.1% and the Oedema inhibition % ([1]; os, 10 mg/kg, 24 h) was 0.0%. The Oedema inhibition % ([1]; os, 50 mg/kg, 3 h) was 49.1%, the Oedema inhibition % ([1]; os, 50 mg/kg, 6 h) was 49.0% and the Oedema inhibition % ([1]; os, 50 mg/kg, 24 h) was 3.4%. The Oedema inhibition % ([1]; os, 100 mg/kg, 3 h) was 69.7%, the Oedema inhibition % ([1]; os, 100 mg/kg, 6 h) was 69.0% and the Oedema inhibition % ([1]; os, 100 mg/kg, 24 h) was 22.1%. It also gave a Protection % ([2]; i.p., 5 mg/kg) of 15.3%, a Protection % ([2]; i.p., 10 mg/kg) of 47.0% and a Protection % ([2]; i.p., 20 mg/kg) of 75.0%. For the same compound, the Protection % ([2]; os, 5 mg/kg) was 18.0%, the Protection % ([2]; os, 10 mg/kg) was 42.1% and the Protection % ([2]; os, 20 mg/kg) was 70.3%. It also gave a Temperature decrease % ([3]; i.p., 50 mg/kg, 1 h) of 12.1%, a Temperature decrease % ([3]; i.p., 50 mg/kg, 2 h) of 25.0% and a Temperature decrease % ([3]; i.p., 50 mg/kg, 3 h) of 29.8%. The Temperature decrease % ([3]; i.p., 75 mg/kg, 1 h) was 16.3%, the Temperature decrease % ([3]; i.p., 75 mg/kg, 2 h) was 30.1% and the Temperature decrease % ([3]; i.p., 75 mg/kg, 3 h) was 35.1%. It also gave a Temperature decrease % ([3]; i.p., 100 mg/kg, 1 h) of 38.7%, a Temperature decrease % ([3]; i.p., 100 mg/kg, 2 h) of 43.0% and a Temperature decrease % ([3]; i.p., 100 mg/kg, 3 h) of 40.0%. The Temperature decrease % ([3]; os, 50 mg/kg, 1 h) was 15.1%, the Temperature decrease % ([3]; os, 50 mg/kg, 6 h) was 20.0% and the Temperature decrease % ([3]; os, 50 mg/kg, 24 h) was 28.7%. The Temperature decrease % ([3]; os, 75 mg/kg, 1 h) was 18.2%, the Temperature decrease % ([3]; os, 75 mg/kg, 6 h) was 29.5% and the Temperature decrease % ([3]; os, 75 mg/kg, 24 h) was 28.7%. For the same compound, the Temperature decrease % ([3]; os, 100 mg/kg, 1 h) was 22.1%, the Temperature decrease % ([3]; os, 100 mg/kg, 6 h) was 32.0% and the Temperature decrease % ([3]; os, 100 mg/kg, 24 h) was 38.1%. The inhibition at 1 µg/mL [4] was 22%, the inhibition at 5 µg/mL [4] was 75% and the inhibition at 10 µg/mL [4] was 90%. The LD50 [5] was 1100 mg/kg, the Mean number lesions ([6]; 50 mg/kg) was 1 and the Mean number severity ([6]; 50 mg/kg) was 1. It also gave a Mean number lesions ([6]; 100 mg/kg) of 2, a Mean number severity ([6]; 100 mg/kg) of 3 and a Mean number lesions ([6]; 200 mg/kg) of 3. The Mean number severity ([6]; 200 mg/kg) was 3.
`COc1ccccc1NC(=O)CNC(=O)Cc1ccc(C(=O)c2ccc(C)cc2)n1C` [Compound 1d] showed an Oedema inhibition % ([1]; i.p., 10 mg/kg, 3 h) of 48.7%, an Oedema inhibition % ([1]; i.p., 10 mg/kg, 6 h) of 36.5% and an Oedema inhibition % ([1]; i.p., 10 mg/kg, 24 h) of 0.0%. The Oedema inhibition % ([1]; i.p., 50 mg/kg, 3 h) was 59.2%, the Oedema inhibition % ([1]; i.p., 50 mg/kg, 6 h) was 52.0% and the Oedema inhibition % ([1]; i.p., 50 mg/kg, 24 h) was 18.9%. For the same compound, the Oedema inhibition % ([1]; i.p., 100 mg/kg, 3 h) was 78.6%, the Oedema inhibition % ([1]; i.p., 100 mg/kg, 6 h) was 66.3% and the Oedema inhibition % ([1]; i.p., 100 mg/kg, 24 h) was 30.5%. The Oedema inhibition % ([1]; os, 10 mg/kg, 3 h) was 47.2%, the Oedema inhibition % ([1]; os, 10 mg/kg, 6 h) was 40.0% and the Oedema inhibition % ([1]; os, 10 mg/kg, 24 h) was 9.0%. For the same compound, the Oedema inhibition % ([1]; os, 50 mg/kg, 3 h) was 58.5%, the Oedema inhibition % ([1]; os, 50 mg/kg, 6 h) was 54.0% and the Oedema inhibition % ([1]; os, 50 mg/kg, 24 h) was 30.0%. The Oedema inhibition % ([1]; os, 100 mg/kg, 3 h) was 77.1%, the Oedema inhibition % ([1]; os, 100 mg/kg, 6 h) was 66.0% and the Oedema inhibition % ([1]; os, 100 mg/kg, 24 h) was 38.0%. For the same compound, the “antinflammatory, analgesic and antipyretic activity versus ester analogue (4) (in words)” value ([1]; rat, in vivo) was “comparable to that of the ester analogue (4)”, the Protection % ([2]; i.p., 5 mg/kg) was 29.0% and the Protection % ([2]; i.p., 10 mg/kg) was 60.1%. It also gave a Protection % ([2]; i.p., 20 mg/kg) of 73.4%, a Protection % ([2]; os, 5 mg/kg) of 22.9% and a Protection % ([2]; os, 10 mg/kg) of 54.2%. For the same compound, the Protection % ([2]; os, 20 mg/kg) was 70.1%, the Temperature decrease % ([3]; i.p., 50 mg/kg, 1 h) was 18.0% and the Temperature decrease % ([3]; i.p., 50 mg/kg, 2 h) was 26.0%. The Temperature decrease % ([3]; i.p., 50 mg/kg, 3 h) was 39.0%, the Temperature decrease % ([3]; i.p., 75 mg/kg, 1 h) was 30.0% and the Temperature decrease % ([3]; i.p., 75 mg/kg, 2 h) was 36.1%. The Temperature decrease % ([3]; i.p., 75 mg/kg, 3 h) was 56.1%, the Temperature decrease % ([3]; i.p., 100 mg/kg, 1 h) was 42.0% and the Temperature decrease % ([3]; i.p., 100 mg/kg, 2 h) was 49.0%. It also gave a Temperature decrease % ([3]; i.p., 100 mg/kg, 3 h) of 48.0%, a Temperature decrease % ([3]; os, 50 mg/kg, 1 h) of 16.0% and a Temperature decrease % ([3]; os, 50 mg/kg, 6 h) of 22.0%. The Temperature decrease % ([3]; os, 50 mg/kg, 24 h) was 30.1%, the Temperature decrease % ([3]; os, 75 mg/kg, 1 h) was 18.0% and the Temperature decrease % ([3]; os, 75 mg/kg, 6 h) was 28.0%. For the same compound, the Temperature decrease % ([3]; os, 75 mg/kg, 24 h) was 48.2%, the Temperature decrease % ([3]; os, 100 mg/kg, 1 h) was 29.0% and the Temperature decrease % ([3]; os, 100 mg/kg, 6 h) was 32.0%. For the same compound, the Temperature decrease % ([3]; os, 100 mg/kg, 24 h) was 50.0%, the “anti-platelet aggregant activity (in words)” value [4] was “particularly pronounced anti-platelet aggregant activity” and the inhibition at 1 µg/mL [4] was 20%. The inhibition at 5 µg/mL [4] was 70%, the inhibition at 10 µg/mL [4] was 90% and the Index gastric damage ([6]; 50 mg/kg) was 9. The “Index gastric damage, signed figure (untitled; difference from Carrier index 8)” value ([6]; 50 mg/kg) was “+1”, the Mean number lesions ([6]; 50 mg/kg) was 1 and the Mean number severity ([6]; 50 mg/kg) was 1. For the same compound, the Index gastric damage ([6]; 100 mg/kg) was 11, the “Index gastric damage, signed figure (untitled; difference from Carrier index 8)” value ([6]; 100 mg/kg) was “+3” and the Mean number lesions ([6]; 100 mg/kg) was 1. The Mean number severity ([6]; 100 mg/kg) was 2, the Index gastric damage ([6]; 200 mg/kg) was 12 and the “Index gastric damage, signed figure (untitled; difference from Carrier index 8)” value ([6]; 200 mg/kg) was “+4”. For the same compound, the Mean number lesions ([6]; 200 mg/kg) was 2 and the Mean number severity ([6]; 200 mg/kg) was 2.
